This is an account of results in article PMC10065791 (eLife, 2023).

What is called Ki is a measure of affinity in units of concentration, obtained from inhibition or displacement.

Assay [1] deals with T1, I84V mutant protease (Human immunodeficiency virus type 1 group M subtype B, UniProt P12497, I572V/Q495K).
T1 construct: the gene encoding the desired HIV-1 protease was subcloned into the heat-inducible pXC35 expression vector; made in house
Details: method as in Lockbaum et al. (ACS Infect Dis. 2019 Feb 8; 5 (2): 316–325). Particulars: I84V drug-resistant protease variant; previously reported; ref Lockbaum et al. (ACS Infect Dis. 2019 Feb 8; 5 (2): 316–325); cited from earlier work.

In assay [2] the target is T2, I50V/A71V mutant protease (Human immunodeficiency virus type 1 group M subtype B, UniProt P12497, A559V/I538V/Q495K).
T2 construct: the gene encoding the desired HIV-1 protease was subcloned into the heat-inducible pXC35 expression vector; made in house
Details: method as in Lockbaum et al. (ACS Infect Dis. 2019 Feb 8; 5 (2): 316–325). The following applies: I50V/A71V drug-resistant protease variant; previously reported; ref Lockbaum et al. (ACS Infect Dis. 2019 Feb 8; 5 (2): 316–325); cited from earlier work.

Assay [3] relates to mixture of 26 isogenic NL4-3 protease mutant viruses. Description: Selection for resistance in CEMx174 culture with escalating inhibitor, start mixture of 26 isogenic single mutants, Primer ID deep sequencing. The assay is classed as cell-based, HIV-1. The protocol:
. The selection experiments were performed under two separate starting conditions: first when the starting virus was generated from the NL4-3 clone (this clone closely approximates the clade B consensus for the protease amino acid sequence and will be referred to as ‘wild type’), then again when the starting virus was a mixture of 26 isogenic viruses each with a single mutation associated with drug resistance in the NL4-3 background. […] The initial inhibitor concentration started at low nanomolar concentrations and increased by a factor of 1.5 with each subsequent viral passage (the inhibitor concentration was increased only after the virus spread efficiently through the culture). […] For technical reasons, only five of the selections starting with the mixture of mutants reached an inhibitor concentration as high as 400 nM and are reported here (Figure 2—figure supplement 3). […]
CEMx174 cells were maintained in RPMI 1640 medium with 10% fetal calf serum and penicillin-streptomycin. […] Cell phenotypes were monitored for their ability to generate virus after transfection (293Ts), support viral replication (CEMx174), or report viral infection (TZM-bl). […]

Assay [4] has as its target T3, wild-type NL4-3 protease (Human immunodeficiency virus type 1 group M subtype B, UniProt P12497, Q495K).
T3 construct: the gene encoding the desired HIV-1 protease was subcloned into the heat-inducible pXC35 expression vector; made in house
Set-up: method as in Lockbaum et al. (ACS Infect Dis. 2019 Feb 8; 5 (2): 316–325). Particulars: previously reported, ref Lockbaum et al. (ACS Infect Dis. 2019 Feb 8, 5 (2): 316–325), read-out: Ki WT; cited from earlier work.

Turning to `CCC(CC)CN(C[C@@H](O)[C@H](Cc1ccccc1)NC(=O)O[C@H]1CO[C@H]2OCC[C@H]21)S(=O)(=O)c1ccc(N)cc1` [UMASS-6], the Ki in assay [1] is 12.8 ± 3.1 pM; in assay [2], 100 ± 9.9 pM; in assay [4], under 5 pM. In assay [3] (variant 13V/16E/32I/33F/45I/46I/54L/71V/76V/82F/84V, passage 53, [PI] 5000 nM), the “Abundance of variant at the last time point” value amounted to 62.8%.
For `CCC(CC)CN(C[C@@H](O)[C@H](Cc1ccccc1)NC(=O)O[C@H]1CO[C@H]2OCC[C@H]21)S(=O)(=O)c1ccc(OC)cc1` [UMASS-7], in assay [3] (variant 10F/46I/50V/63P/85V, passage 58, [PI] 400 nM), the “Abundance of variant at the last time point” value is listed as 21.0%.
